# Target: CX3CR1 (Homo sapiens (Human), UniProt P49238)
# Assay: hCX3CR1 [3H]-AZD8797 competitive binding assay (filter)
# Settings: CHO-hCX3CR1 membranes, 2 nM [3H]-AZD8797
# Method: hCX3CR1 [^3H]-AZD8797 Competitive Binding Assay (Filter)
# CHO-hCX3CR1 membranes (9 μg per well) together with 2 nM [^3H]-AZD8797 and different concentrations of competitor compound were incubated in 25 mM HEPES (pH 7.4), 10 mM MgCl2, 1 mM CaCl2) and 0.5% BSA in a Corning polystyrene flat-bottom 96-well plate. The plate was incubated for 2 h at room temperature before free radioligand was separated from bound by vacuum filtration on to a Multiscreen HTS+HiFlow FB (Millipore) filter plate, using a Biomek FX (Beckman Coulter). The filter plate was washed in ice-cold 25 mM HEPES (pH 7.4), 5 mM MgCl2, 1 mM CaCl2) and 500 mM NaCl and dried at 50° C. for 1 h. Scintillation cocktail, Optiphase Supermix (PerkinElmer) was added to each well and the radioactivity was measured using a MicroBeta Trilux reader (PerkinElmer). The DMSO concentration was held constant at 1%.
# Chain of CX3CR1 (P49238 whole entry): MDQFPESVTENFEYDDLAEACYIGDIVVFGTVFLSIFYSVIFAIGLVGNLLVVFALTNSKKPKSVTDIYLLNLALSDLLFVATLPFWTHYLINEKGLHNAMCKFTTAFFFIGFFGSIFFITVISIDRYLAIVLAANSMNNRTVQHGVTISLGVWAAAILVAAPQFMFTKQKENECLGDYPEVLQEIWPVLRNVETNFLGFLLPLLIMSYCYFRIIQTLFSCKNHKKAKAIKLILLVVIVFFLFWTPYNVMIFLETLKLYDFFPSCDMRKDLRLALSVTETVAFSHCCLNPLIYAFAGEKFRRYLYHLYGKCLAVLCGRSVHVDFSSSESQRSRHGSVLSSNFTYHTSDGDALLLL
row,Compound,IC50 [µM]
1,"CC(C)C[C@H](CO)Nc1nc(CC(C)c2cc(Cl)ccc2O)nc(NS(C)(=O)=O)n1 (stereo partly drawn) [Example 107, N-(4-(2-(5-Chloro-2-hydroxyphenyl)propyl)-6-(((R)-1-hydroxy-4-methylpentan-2-yl)amino)-1,3,5-triazin-2-yl)methanesulfonamide]",0.113
2,"CC(C)C[C@H](CO)Nc1nc(C[C@H](C)c2c(F)cc(F)cc2F)nc(NS(C)(=O)=O)n1 (single isomer, unassigned) [Example 39, N-(4-(((R)-1-Hydroxy-4-methylpentan-2-yl)amino)-6-((S*)-2-(2,4,6-trifluorophenyl)propyl)-1,3,5-triazin-2-yl)methanesulfonamide]",> 10
3,"CCOc1ccc([C@H](C)Cc2nc(N[C@@H](CO)CC(C)C)nc(NS(C)(=O)=O)n2)cn1 (single isomer, unassigned) [Example 27, N-(4-((R*)-2-(6-Ethoxypyridin-3-yl)propyl)-6-(((R)-1-hydroxy-4-methylpentan-2-yl)amino)-1,3,5-triazin-2-yl)methanesulfonamide]",0.138
4,"Cc1ncc(C(C)Cc2nc(N[C@@H](CO)CC(C)C)nc(NS(C)(=O)=O)n2)cc1N (stereo partly drawn) [Example 131, N-(4-(2-(5-Amino-6-methylpyridin-3-yl)propyl)-6-(((R)-1-hydroxy-4-methylpentan-2-yl)amino)-1,3,5-triazin-2-yl)methanesulfonamide]",0.639
5,"CC(C)C[C@H](CO)Nc1nc(CC(C)c2cccc(Cl)c2)nc(NS(C)(=O)=O)n1 (stereo partly drawn) [Example 72, N-(4-(2-(3-Chlorophenyl)propyl)-6-(((R)-1-hydroxy-4-methylpentan-2-yl)amino)-1,3,5-triazin-2-yl)methanesulfonamide]",0.34
6,"CC(C)C[C@H](CO)Nc1nc(CC(C)c2ccc3[nH]ccc3c2)nc(NS(C)(=O)=O)n1 (stereo partly drawn) [Example 60, N-(4-(2-(1H-Indol-5-yl)propyl)-6-(((R)-1-hydroxy-4-methylpentan-2-yl)amino)-1,3,5-triazin-2-yl)methanesulfonamide]",0.102
7,"COc1ccc(C(C)Cc2nc(N[C@@H](CO)CC(C)C)nc(NS(C)(=O)=O)n2)cc1 (stereo partly drawn) [Example 113, N-(4-(((R)-1-Hydroxy-4-methylpentan-2-yl)amino)-6-(2-(4-methoxyphenyl)propyl)-1,3,5-triazin-2-yl)methanesulfonamide]",0.184

# Other lines, results leading:
row,IC50 [µM],Compound
1,0.469,"COc1cccc(C(C)Cc2nc(N[C@@H](CO)CC(C)C)nc(NS(C)(=O)=O)n2)c1O (stereo partly drawn) [Example 139, N-(4-(2-(2-Hydroxy-3-methoxyphenyl)propyl)-6-(((R)-1-hydroxy-4-methylpentan-2-yl)amino)-1,3,5-triazin-2-yl)methanesulfonamide]"
2,0.958,"COc1ccc([C@@H](C)Cc2nc(N[C@@H](CO)CC(C)C)nc(NS(C)(=O)=O)n2)cc1F (single isomer, unassigned) [Example 20, N-(4-((S*)-2-(3-Fluoro-4-methoxyphenyl)propyl)-6-(((R)-1-hydroxy-4-methylpentan-2-yl)amino)-1,3,5-triazin-2-yl)methanesulfonamide]"
3,0.282,"CC(C)C[C@H](CO)Nc1nc(CC(C)c2ccc(C(=O)N(C)C)c(F)c2)nc(NS(C)(=O)=O)n1 (stereo partly drawn) [Example 116, 2-Fluoro-4-(1-(4-(((R)-1-hydroxy-4-methylpentan-2-yl)amino)-6-(methylsulfonamido)-1,3,5-triazin-2-yl)propan-2-yl)-N,N-dimethylbenzamide]"
4,0.149,COc1ccc(C(C)Cc2nc(N[C@@H](CO)CC(C)C)nc(NS(C)(=O)=O)n2)cc1OC (stereo partly drawn) [Example 96]
5,0.112,"COc1cccc(C(C)Cc2nc(N[C@@H](CO)CC(C)C)nc(NS(C)(=O)=O)n2)c1 (stereo partly drawn) [Example 92, N-(4-(((R)-1-Hydroxy-4-methylpentan-2-yl)amino)-6-(2-(3-methoxyphenyl)propyl)-1,3,5-triazin-2-yl)methanesulfonamide]"
